Assay results taken from ChEMBL document CHEMBL4177607, “Antibacterial constituents of the plant family Amaryllidaceae” (2017).
≈ marks a conversion by molar mass, not a printed value. Blank lines part the entries; values can stand above or below the compound they belong to.

Tests used:
Type in all cases: functional
[1] = tested on: Flavobacterium columnare; assay: Antibacterial activity against Flavobacterium columnare ALM-00-173 after 24 hrs; conditions: ALM-00-173, 24 h
[2] = tested on: Flavobacterium columnare; assay: Antibacterial activity against Flavobacterium columnare BioMed after 24 hrs
[3] = tested on: Shigella flexneri; assay: Antibacterial activity against Shigella flexneri after 24 hrs by broth microdilution method
[4] = tested on: Escherichia coli; assay: Antibacterial activity against Escherichia coli after 24 hrs by broth microdilution method
[5] = tested on: Pseudomonas aeruginosa; assay: Antibacterial activity against Pseudomonas aeruginosa after 24 hrs by broth microdilution method
[6] = tested on: Neisseria gonorrhoeae; assay: Antibacterial activity against Neisseria gonorrhoeae
[7] = tested on: Rhodococcus fascians; assay: Antibacterial activity against Corynebacterium fascians assessed as diameter of inhibition zone at 10 mM after 48 to 72 hrs by paper disc method; conditions: Rhodococcoides fascians; read-out: DIZ
[8] = tested on: Staphylococcus aureus; assay: Antibacterial activity against Staphylococcus aureus
[9] = tested on: Staphylococcus aureus; assay: Antibacterial activity against Staphylococcus aureus assessed as diameter of inhibition zone at 1 mg/ml; conditions: read-out: DIZ
[10] = tested on: Escherichia coli; assay: Antibacterial activity against Escherichia coli assessed as diameter of inhibition zone at 1 mg/ml; conditions: read-out: DIZ
[11] = tested on: Edwardsiella ictaluri; assay: Antibacterial activity against Edwardsiella ictaluri after 24 hrs
[12] = tested on: Staphylococcus aureus; assay: Antibacterial activity against Staphylococcus aureus assessed as diameter of inhibition zone at 3 mg/ml; conditions: read-out: DIZ
[13] = tested on: Escherichia coli; assay: Antibacterial activity against Escherichia coli assessed as diameter of inhibition zone at 3 mg/ml; conditions: read-out: DIZ
[14] = tested on: Staphylococcus aureus; assay: Antibacterial activity against Staphylococcus aureus incubated overnight by two-fold serial dilution method
[15] = tested on: Escherichia coli; assay: Antibacterial activity against Escherichia coli incubated overnight by two-fold serial dilution method

SMILES: C[N+]12CCC3=C[C@H](OC(=O)c4ccccc4Cl)[C@@H](OC(=O)c4ccccc4Cl)[C@@H](c4cc5c(cc4C1)OCO5)[C@@H]32.[I-] (some centres undefined)
MIC [1]: > 70 µg/mL | MIC [2]: > 70 µg/mL

SMILES: CCCCCCCCCCCC(=O)Oc1ccc([C@@H]2CC(=O)c3c(O)c(C)c(O)c(C)c3O2)cc1
MIC [3]: 8 µg/mL (≈ 16.6 µM) | MIC [4]: 8 µg/mL (≈ 16.6 µM) | MIC [5]: 16 µg/mL (≈ 33.2 µM)

SMILES: CC(=O)Oc1c2c(cc3c1C(=O)N[C@@H]1C3=C[C@H](OC(C)=O)[C@@H](OC(C)=O)[C@H]1OC(C)=O)OCO2
MIC [6]: 32 to 64 µg/mL (≈ 67.3 to 135 µM)

SMILES: O=C(O[C@H]1[C@@H](O)[C@@H](O)[C@@H]2NC(=O)c3c(cc4c(c3O)OCO4)[C@@]2(O)[C@@H]1O)c1ccccc1
MIC [6]: 32 to 64 µg/mL (≈ 71.8 to 144 µM)

SMILES: CCCCCCCC(=O)Oc1ccc([C@@H]2CC(=O)c3c(O)c(C)c(O)c(C)c3O2)cc1
MIC [3]: 64 µg/mL (≈ 150 µM) | MIC [4]: 32 µg/mL (≈ 75 µM) | MIC [5]: 16 µg/mL (≈ 37.5 µM)

SMILES: Cc1ccc(C(=O)Oc2ccc([C@@H]3CC(=O)c4c(O)c(C)c(OC(=O)c5ccc(C)cc5)c(C)c4O3)cc2)cc1
MIC [3]: 8 µg/mL (≈ 14.9 µM) | MIC [4]: 8 µg/mL (≈ 14.9 µM) | MIC [5]: 16 µg/mL (≈ 29.8 µM)

SMILES: CCCC(=O)Oc1ccc([C@@H]2CC(=O)c3c(O)c(C)c(OC(=O)CCC)c(C)c3O2)cc1
MIC [3]: 2 µg/mL (≈ 4.54 µM) | MIC [4]: 2 µg/mL (≈ 4.54 µM) | MIC [5]: 4 µg/mL (≈ 9.08 µM)

SMILES: O[C@@H]1C=C[C@]23c4cc5c(cc4C[N@@](C[C@@H]2O)[C@H]3C1)OCO5
zone of inhibition at 3000 µg/mL [12]: 17 mm

SMILES: COC1=C[C@@H]2CCN3Cc4cc5c(cc4[C@@H]([C@H]23)[C@@H]1O)OCO5 [AMARBELLISINE]
zone of inhibition at 3000 µg/mL [13]: 22 mm | zone of inhibition at 3000 µg/mL [12]: 22 mm

SMILES: COc1cc2c(cc1OC)[C@@H](O)O[C@@H]1CC=C3CCN(C)[C@H]3[C@H]21
zone of inhibition at 1000 µg/mL [9]: 14 mm | zone of inhibition at 1000 µg/mL [10]: 15 mm

SMILES: CCCCCCCC(=O)Oc1c(C)c(O)c2c(c1C)O[C@H](c1ccc(O)cc1)CC2=O
MIC [3]: 16 µg/mL (≈ 37.5 µM) | MIC [4]: 16 µg/mL (≈ 37.5 µM) | MIC [5]: 32 µg/mL (≈ 75 µM)

SMILES: COc1ccc2c3c1O[C@H]1C[C@@H](O)C=C[C@@]31CCN(C)C2 [GALANTAMINE]
MIC [14]: 2050 µg/mL (≈ 7130 µM) | MIC [15]: 2050 µg/mL (≈ 7130 µM)

SMILES: O=c1c2cc3c(cc2c2cccc4c2n1CC4)OCO3
zone of inhibition at 10000 µM [7]: 25 mm | MIC [1]: 10 µM | MIC [2]: 100 µM

SMILES: Cc1cccc(C(=O)O[C@H]2[C@H]3c4cc5c(cc4CN4CCC(=C[C@@H]2OC(=O)c2cccc(C)c2C)[C@H]34)OCO5)c1C
MIC [1]: 30.4 µg/mL | MIC [2]: 55.2 µg/mL

SMILES: Oc1cc2c3c(c1)-c1cc4c(cc1CN3CC2)OCO4
zone of inhibition at 10000 µM [7]: 0 mm

SMILES: c1cc2c3c(c1)c1cc4c(cc1c[n+]3CC2)OCO4 [ANHYDROLYCORINIUM CHLORIDE]
zone of inhibition at 10000 µM [7]: 30 mm

SMILES: COc1c(C)c(O)c2c(=O)cc(-c3ccc(O)cc3)oc2c1C [SIDEROXYLIN]
MIC [3]: 8 µg/mL (≈ 25.6 µM) | MIC [4]: 32 µg/mL (≈ 102 µM) | MIC [5]: 64 µg/mL (≈ 205 µM)

SMILES: COc1cc2c(c(O)c1C)C(=O)C(O)C(c1ccc(O)cc1)O2 (centres undefined)
MIC [3]: 4 µg/mL (≈ 12.6 µM) | MIC [4]: 16 µg/mL (≈ 50.6 µM) | MIC [5]: 32 µg/mL (≈ 101 µM)

SMILES: O=C1N[C@@H]2C(=C[C@H](O)[C@@H](O)[C@H]2O)c2cc3c(cc21)OCO3
zone of inhibition at 1000 µg/mL [9]: 11 mm | zone of inhibition at 1000 µg/mL [10]: 12 mm

Now from value to compound, other results behind:

MIC [1]: 46.4 µg/mL | MIC [2]: 22.9 µg/mL
SMILES: Cc1ccccc1C(=O)O[C@H]1C=C2CCN3Cc4cc5c(cc4[C@H]([C@@H]1O)[C@@H]23)OCO5

MIC [1]: 5.6 µg/mL | MIC [2]: 5.6 µg/mL
SMILES: O=C(O[C@H]1[C@H]2c3cc4c(cc3CN3CCC(=C[C@@H]1OC(=O)c1cccc(Cl)c1)[C@H]23)OCO4)c1cccc(Cl)c1

MIC [8]: > 287 µg/mL | MIC [1]: 100 µM | MIC [11]: > 287 µg/mL | MIC [2]: 100 µM
SMILES: O[C@H]1[C@H]2c3cc4c(cc3CN3CCC(=C[C@@H]1O)[C@H]23)OCO4 [LYCORINE]
zone of inhibition at 10000 µM [7]: 0 mm | zone of inhibition at 1000 µg/mL [9]: 15 to 28 mm | zone of inhibition at 1000 µg/mL [10]: 13 to 25 mm

MIC [8]: > 33 µg/mL | MIC [11]: > 33 µg/mL
SMILES: CC(=O)O[C@H]1[C@H]2c3cc4c(cc3CN3CCC(=C[C@@H]1O)[C@H]23)OCO4

MIC [1]: 31 µg/mL | MIC [2]: 5.6 µg/mL
SMILES: O=C(O[C@H]1C=C2CCN3Cc4cc5c(cc4[C@H]([C@@H]1OC(=O)c1ccccc1Cl)[C@@H]23)OCO5)c1cccc(Cl)c1

MIC [1]: 5.2 µg/mL | MIC [2]: 28.8 µg/mL
SMILES: Cc1cccc(C(=O)O[C@H]2[C@H]3c4cc5c(cc4CN4CCC(=C[C@@H]2OC(=O)c2cccc(C)c2)[C@H]34)OCO5)c1

MIC [1]: 42.6 µg/mL | MIC [2]: 42.6 µg/mL
SMILES: O=C(O[C@H]1C=C2CCN3Cc4cc5c(cc4[C@H]([C@@H]1O)[C@@H]23)OCO5)c1ccc(Cl)cc1

MIC [1]: 23.2 µg/mL | MIC [2]: 42.1 µg/mL
SMILES: Cc1ccccc1NC(=O)O[C@H]1C=C2CCN3Cc4cc5c(cc4[C@H]([C@@H]1O)[C@@H]23)OCO5

MIC [1]: 4.7 µg/mL | MIC [2]: 22.9 µg/mL
SMILES: Cc1ccc(C(=O)O[C@H]2C=C3CCN4Cc5cc6c(cc5[C@H]([C@@H]2O)[C@@H]34)OCO6)cc1
